From patent US10801024B2, “Inhibition of lncRNA HOTAIR and related materials and methods” (Indiana University Research and Technology Corporation, priority 2015, dated 2020)

Key:
[1] = test system: A2780_CR5; assay: Survival assay after inhibiting HOTAIR and/or EZH2; format: cell-based; settings: dsiRNA targeting HOTAIR combined with GSK126; platinum-resistant cells
Method: In one exemplary method, the effect of inhibiting both HOTAIR and EZH2 on cancer cell survival was investigated. A highly platinum-resistant ovarian cancer cell line (A2780_CR5) was treated with dsiRNA targeting HOTAIR and/or a pharmacological inhibitor of EZH2 (GSK126), followed by survival assays. As an additive (P<0.05) effect of inhibiting HOTAIR-EZH2 on drug sensitivity and survival was observed (versus inhibiting either factor alone; FIG. 2A), it was next of interest to target the HOTAIR-EZH2 interaction by targeting the 89-mer minimum interacting region of HOTAIR, which has been shown. mFold (Zuker, M., Mfold web server for nucleic acid folding and hybridization prediction. Nucleic acids research, 2003. 31(13):3406-3415, incorporated herein by reference in its entirety) was used to validate the predicted secondary structure of this site, observing a highly predicted, single-stranded region in all 19 predicted structures, which complemented previous such structures (FIG. 3A).

[2] = test system: A2780_CR5; assay: Cell invasion assay (matrigel); format: cell-based; settings: FIGS. 5D-5E (A2780_CR5 and SKBR-3)
Method: In another exemplary method, ovarian cancer cells and breast cancer cells were treated with PNA3 or control PNA. Decreased (P<0.05) invasion of A2780_CR5 (2-fold, FIG. 5D), Kuramochi (0.6-fold, FIG. 9A) and SKBR-3 (2-fold, FIG. 5E) was observed, and the effect of PNA3 on cell invasion was essentially similar to knocking-down HOTAIR expression using siRNA (FIGS. 5D-5E). PNA3 or control PNA had no effect on A2780p and MDA-MB-231 cell invasion (FIGS. 9B-9C).
Cells were grown in 6 cm culture plates until 70% confluence and treated with either PNA3 or control PNA (1 μM final) for 24 hr. Next day, the plates were trypsinized, serially diluted and 50,000 cells were seeded inside a matrigel invasion chamber insert (Corning, Cat #354480) in serum-free media supplemented with 0.1% BSA. Media supplemented with 20% FBS was added to the bottom of the well and 48 hrs later, cells were fixed and dyed using Wright-Giemsa method (Hema 3 Stat pack, Cat #23-122-929) and invasion was counted under a light microscope at 20× magnification. Relative cell invasion was measured by dividing the control number of invaded cells by the PNA-treated samples.

[3] = test system: A2780_CR5; assay: Mouse xenograft: tumor volume and survival; format: in vivo; settings: CDDP-treated mice
Method: All animal studies adhered to ethical regulations and protocols. To assess tumorigenicity of cells, cultured A2780_CR5 cells were washed with PBS trypsinized and counted with trypan blue, re-suspended in 1:1 PBS/matrigel (BD Bioscience) and 2×10^6 cells were injected subcutaneously into the left flank of 3- to 4-week-old female nude athymic mice (BALB/c-nu/nu; Harlan, Indianapolis, Ind.). Engrafted mice (n=6 per group) were inspected three times per week for tumor appearance by visual observation and palpation. Once tumors were ˜200 mm^3, mice were treated with either CDDP (2 mg kg−1) or PNA (1 mg kg−1) or both CDDP and PNA twice per week for two weeks. Blood samples were collected by puncturing the left lateral saphenous vein with a needle and collected using a capillary tube. Tumor length (l) and width (w) were measured biweekly using digital calipers and tumor volume (v) was calculated as v=½×1×w2. No randomization was used and no animals were excluded from the final data. […]

[4] = test system: IL-6, MMP-9 and ALDH1A1; assay: Mouse xenograft: blood IL-6 (ELISA) and tumor expression of HOTAIR targets; format: in vivo, mice; settings: CDDP alone; after the second bi-weekly treatment
[5] = Mouse xenograft: body weight, spleen and liver weight, histology; format: in vivo
Method: In another exemplary method, to investigate anti-tumor properties of pHLIP-PNA3 in vivo, BALB/C mice were subcutaneously injected with CDDP-resistant A2780_CR5 (2×10^6 cells). Once tumors reached ˜200 mm^3, mice were injected intravenously (two times per week for 2 weeks) with pHLIP-PNA3 (1 mg/kg), pHLIP-control PNA (1 mg/kg), and/or CDDP (2 mg/kg i.p.) at indicated times (FIG. 14A). Tumor volume was reduced (p=0.02) in mice co-administered pHLIP-PNA3+CDDP compared to pHLIP-control PNA+CDDP (FIG. 13A). Tumor volume in mice treated with either pHLIP-PNA alone was similar to vehicle-treated mice (FIG. 14A). Importantly, survival of mice treated with pHLIP-PNA3 vs. mock was increased 1.6-fold (39 vs. 25 days; FIG. 13B), and body weight was similar among groups (FIG. 14B), showing that PNAs are non-toxic in vivo. […]
All animal studies adhered to ethical regulations and protocols. To assess tumorigenicity of cells, cultured A2780_CR5 cells were washed with PBS trypsinized and counted with trypan blue, re-suspended in 1:1 PBS/matrigel (BD Bioscience) and 2×10^6 cells were injected subcutaneously into the left flank of 3- to 4-week-old female nude athymic mice (BALB/c-nu/nu; Harlan, Indianapolis, Ind.). […] Tumor length (l) and width (w) were measured biweekly using digital calipers and tumor volume (v) was calculated as v=½×1×w2. […]

[6] = test system: HOTAIR expression; assay: Cytokine/chemokine screen, HOTAIR levels; format: cell-based; settings: A2780 p cells, 10 ng/mL
Method: FIG. 11A is a line graph showing changes in HOTAIR target gene expression in A2780 p cells treated with IGF, TGF-β, EGF, IL-1α, or TNF-α (10 ng/mL). Asterisks indicate P<0.05 (*) or P<0.01 (**).
As a positive association between HOTAIR and the master transcription factor NF-κB has been reported. […] In an exemplary method, a cytokine/chemokine screen was performed, followed by the measurement of HOTAIR levels. Of the cytokines examined, HOTAIR expression was increased (P<0.05) by TNF-α (>15-fold) and TGF-β (5-fold) compared to control (FIG. 11A). To further confirm HOTAIR induction of NF-κB, a luciferase reporter construct containing the E-selectin promoter was used (861 base pairs containing 3 canonical NF-κB-p65-binding sites as a positive control; FIG. 3B) (Ozes, O. N., et al., NF-κB activation by tumour necrosis factor requires the Akt serine-threonine kinase. Nature, 1999. 401(6748):82-85, incorporated herein by reference in its entirety) and a 1.4-fold increase (p<0.05) in luciferase activity was observed by ectopic overexpression of HOTAIR compared to vector control (FIG. 11B), which was decreased (P<0.05) by PNA3 (FIG. 11B). PNA3 treatment of breast and ovarian cancer cells decreased (P<0.05) IL-6 secretion into the media (FIG. 11C). […]

In the case of `CC[C@H](C)n1cc(C)c2c(C(=O)NCc3c(C)cc(C)[nH]c3=O)cc(-c3ccc(N4CCNCC4)nc3)cc21` [GSK126], the “effect on drug sensitivity and survival of inhibiting both HOTAIR and EZH2 versus either alone” value [1] is reported as “additive”.

With “dsiRNA targeting HOTAIR: dsiRNA targeting human HOTAIR, sense SEQ ID NO: 22, antisense SEQ ID NO: 23 (sense UUCUAAAUCCGUUCCAUUCCACUGCGA; antisense GCAGUGGAAUGGAACGGAUUUAGAA; antisense strand carries a 5'-phosphate, other chemistry not given here, further chemistry not given here)” the “cell invasion, in words” value [2] was “decrease” and the “effect on drug sensitivity and survival of inhibiting both HOTAIR and EZH2 versus either alone” value [1] was “additive”.

With `[NH2][Pt]([NH2])([Cl])[Cl]` [CDDP, cisplatin] the “H&E slides of tumors” value [3] was “fewer cells”, the “blood IL-6 levels compared to controls” value [4] was “increased” and the “spleen size compared to mock treated” value ([5]; CDDP treatment) was “increased”. The liver size ([5]; similar trend as spleen) was “none were statistically significant”.

For TNF-α, the “HOTAIR expression increase compared to control” value [6] was greater than 15 fold.

For TGF-β, the “HOTAIR expression increase compared to control” value [6] was 5 fold.
